# Results taken from patent publication US8639486B2, “Method for identifying inhibitors of Staphylococcus aureus” (Indian Institute of Science, priority 2010, dated 2014).
# Residues, ends and D or L forms follow the SMILES beside them.
# Target: S. aureus N-Succinyl-L,L-DAP Desuccinylase (DapE), SEQ ID NO: 2 (Staphylococcus aureus, UniProt Q5HF23)
# Test: qualitative dipeptidase activity (TLC assay)
# Format: biochemical, Staphylococcus aureus COL
# Parameters: key: +: Mild hydrolytic activity; ++: Moderate hydrolytic activity; +++: High hydrolytic activity
# Conditions: 5.0 mg/mL dipeptide, 2 μg DapE, 50 mM Tris-HCl pH 7.5, 37° C., 30 min
# Sequence of S. aureus N-Succinyl-L,L-DAP Desuccinylase (DapE), SEQ ID NO: 2 (Q5HF23 whole entry): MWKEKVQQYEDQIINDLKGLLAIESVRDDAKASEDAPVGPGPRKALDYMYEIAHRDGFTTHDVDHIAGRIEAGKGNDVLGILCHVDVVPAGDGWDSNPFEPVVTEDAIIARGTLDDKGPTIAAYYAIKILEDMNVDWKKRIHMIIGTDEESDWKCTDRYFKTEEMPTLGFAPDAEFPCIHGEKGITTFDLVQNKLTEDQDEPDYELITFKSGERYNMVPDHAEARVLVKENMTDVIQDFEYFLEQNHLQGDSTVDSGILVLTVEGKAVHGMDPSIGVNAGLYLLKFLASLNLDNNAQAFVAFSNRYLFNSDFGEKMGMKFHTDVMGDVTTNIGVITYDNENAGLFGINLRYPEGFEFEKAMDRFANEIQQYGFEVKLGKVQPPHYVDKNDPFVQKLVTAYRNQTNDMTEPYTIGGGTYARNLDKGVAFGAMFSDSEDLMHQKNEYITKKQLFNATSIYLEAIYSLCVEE
row,Molecule,Activity (qualitative dipeptidase / hydrolytic activity)
1,NCC(=O)N[C@@H](CO)C(=O)O [Gly-Ser] (H-Gly-Ser-OH),+
2,NCCCC[C@H](N)C(=O)N[C@@H](Cc1ccccc1)C(=O)O [Lys-Phe],++
3,N[C@@H](CO)C(=O)N[C@@H](Cc1cnc[nH]1)C(=O)O [Ser-His] (H-Ser-His-OH),++
4,CC(C)C[C@H](NC(=O)[C@@H](N)Cc1cnc[nH]1)C(=O)O [His-Leu] (H-His-Leu-OH),+
5,CC(C)[C@H](NC(=O)[C@@H](N)CCCN=C(N)N)C(=O)O [Arg-Val] (H-Arg-Val-OH),+++
6,NCCCC[C@H](NC(=O)CN)C(=O)O [Gly-Lys] (H-Gly-Lys-OH),+
7,C[C@H](N)C(=O)N[C@@H](CO)C(=O)O [Ala-Ser] (H-Ala-Ser-OH),+
8,CC(C)[C@H](NC(=O)[C@@H](N)Cc1ccccc1)C(=O)O [Phe-Val] (H-Phe-Val-OH),+++
9,CC[C@H](C)[C@H](NC(=O)[C@@H](N)CCCN=C(N)N)C(=O)O [Arg-Ile] (H-Arg-Ile-OH),+++
10,C[C@H](NC(=O)[C@@H](N)CCCN=C(N)N)C(=O)O [Arg-Ala] (H-Arg-Ala-OH),+++
11,CC(C)C[C@H](NC(=O)[C@@H](N)CCCN=C(N)N)C(=O)O [Arg-Leu] (H-Arg-Leu-OH),+++
12,CC(C)C[C@H](NC(=O)[C@@H](N)CCCCN)C(=O)O [Lys-Leu] (H-Lys-Leu-OH),++
13,NCCCC[C@H](NC(=O)[C@@H](N)CC(=O)O)C(=O)O [Asp-Lys] (H-Asp-Lys-OH),+

# Tested on: botanical DapA (N. sylvestris)
# Test: not given
# Conditions: highly sensitive, read-out: IC50 of feedback inhibition by L-lysine; cited from earlier work
row,Molecule,IC50 [mM]
1,NCCCC[C@H](N)C(=O)O [L-lysine],0.015 to 0.02

# Target: DapA from gram negative bacteria (E. coli) (Escherichia coli, UniProt P0A6L2)
# Test: not given
# Conditions: less sensitive, read-out: IC50 of feedback inhibition by L-lysine; cited from earlier work
# Sequence of DapA from gram negative bacteria (E. coli) (P0A6L2 whole entry): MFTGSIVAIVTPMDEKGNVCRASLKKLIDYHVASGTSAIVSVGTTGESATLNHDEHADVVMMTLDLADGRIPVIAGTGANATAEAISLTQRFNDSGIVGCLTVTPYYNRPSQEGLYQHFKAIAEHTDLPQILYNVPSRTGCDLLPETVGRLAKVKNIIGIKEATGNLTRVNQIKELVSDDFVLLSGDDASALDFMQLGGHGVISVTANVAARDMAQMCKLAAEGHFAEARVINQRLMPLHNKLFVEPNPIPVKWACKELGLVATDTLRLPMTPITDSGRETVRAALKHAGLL
row,Molecule,IC50 [mM]
1,NCCCC[C@H](N)C(=O)O [L-lysine],100

# Tested on: CC(C)[C@H](NC(=O)[C@@H](N)Cc1ccccc1)C(=O)O
# Test: purified protein, by the assay type
# Conditions: other: holo-DapE + Mn^2+ + TCEP, Phe-Val, pH 7.5, 37° C.
row,Molecule,Km [µM]
1,"S. aureus N-Succinyl-L,L-DAP Desuccinylase (DapE), holo form, SEQ ID NO: 2 (Staphylococcus aureus subsp. aureus COL)",1100 ± 100

# Same assay, conditions: other: holo-DapE + Mn^2+, Phe-Val, pH 7.5, 37° C.
row,Molecule,Km [µM]
1,"S. aureus N-Succinyl-L,L-DAP Desuccinylase (DapE), holo form, SEQ ID NO: 2 (Staphylococcus aureus subsp. aureus COL)",1150 ± 120

# Same assay, conditions: other: holo-DapE, Phe-Val, pH 7.5, 37° C.
row,Molecule,Km [µM]
1,"S. aureus N-Succinyl-L,L-DAP Desuccinylase (DapE), holo form, SEQ ID NO: 2 (Staphylococcus aureus subsp. aureus COL)",670 ± 100
